Test results reported in patent US20100004289A1, “SUBSTITUTED BUTYROPHENONE DERIVATIVES” (priority 2005, published 2010).
Where “and” joins values, the source holds several entries; their conditions need not be identical. Equal values may be shown once.

How the values were obtained:
[1] = biological target: T1, histamine H1 receptor (rat cortex) (Rattus norvegicus, UniProt P31390); assay: Competitive binding at histamine H1 receptor; conditions: read-out: dissociation constant at histamine H1 receptor
T1 construct: tissue Pel-Freez (Rogers, Ark.); host or cells: rat cortex
T1 sequence (P31390 whole entry): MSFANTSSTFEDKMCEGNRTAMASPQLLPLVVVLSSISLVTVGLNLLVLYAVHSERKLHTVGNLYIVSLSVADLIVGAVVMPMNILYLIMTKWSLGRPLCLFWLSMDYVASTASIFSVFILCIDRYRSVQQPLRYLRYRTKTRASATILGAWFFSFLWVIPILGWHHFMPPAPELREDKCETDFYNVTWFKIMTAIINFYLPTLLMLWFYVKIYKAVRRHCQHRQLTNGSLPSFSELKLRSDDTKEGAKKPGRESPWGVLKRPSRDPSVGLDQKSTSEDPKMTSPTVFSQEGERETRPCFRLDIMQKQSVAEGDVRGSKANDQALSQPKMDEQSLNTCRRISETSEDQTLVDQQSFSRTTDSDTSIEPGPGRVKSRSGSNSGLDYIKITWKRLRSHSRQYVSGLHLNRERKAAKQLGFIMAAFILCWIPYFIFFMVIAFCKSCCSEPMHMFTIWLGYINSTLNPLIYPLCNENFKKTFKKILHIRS
Method: (§2) The competition between a compound and a [^3H]ligand for binding at the various receptors was done as follows. Each incubation tube (12×75 mm glass) received, in the following order, 0.5 ml buffer (50 mM Tris-HCl, pH 7.4 at 20° C., 1 mM EDTA, 5 mM KCl, 120 mM NaCl, 1.5 mM CaCl2, 4 mM MgCl2) containing a range of drug concentrations (final concentrations of 0.01 nM to 1,000 nM) or an excess of a second drug in order to define nonspecific binding, followed by the addition of 0.25 ml [^3H]ligand, and 0.25 ml of homogenized tissue suspension. […] After filtering the incubate, the filter mat was rinsed with buffer for 15 s (7.5 ml buffer). The filters were pushed out and placed in scintillation minivials (Packard Instruments, Chicago, Ill.).

[2] = biological target: T2, cloned dopamine human D2Long receptor (Homo sapiens, UniProt P14416); assay: Competitive binding at cloned dopamine D2 receptor ([3H]raclopride); conditions: 2 nM [3H]raclopride, read-out: dissociation constant, K, at D2 receptor
T2 construct: purchased Research Biochemicals International (Natick, Mass.); host or cells: Sf9 cells or CHO cells
T2 sequence (P14416 whole entry): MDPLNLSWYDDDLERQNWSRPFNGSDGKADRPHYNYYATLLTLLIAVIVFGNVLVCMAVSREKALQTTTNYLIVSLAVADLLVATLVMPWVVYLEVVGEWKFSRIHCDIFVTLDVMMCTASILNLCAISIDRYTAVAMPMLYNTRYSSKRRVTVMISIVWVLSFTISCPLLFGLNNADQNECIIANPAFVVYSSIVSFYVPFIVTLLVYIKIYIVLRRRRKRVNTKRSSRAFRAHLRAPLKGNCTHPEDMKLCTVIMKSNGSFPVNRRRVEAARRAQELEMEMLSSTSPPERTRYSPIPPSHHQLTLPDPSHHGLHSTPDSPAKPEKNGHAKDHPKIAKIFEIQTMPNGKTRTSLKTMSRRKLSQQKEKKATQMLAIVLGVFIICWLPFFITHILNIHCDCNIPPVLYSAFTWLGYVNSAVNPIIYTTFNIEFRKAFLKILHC
Method: (§1) Human dopamine D1 receptors (in Sf9 cells or COS cells), human dopamine D2Long receptors (in Sf9 cells or CHO cells), human alpha-adrenoceptor-2A receptors, and human muscarinic M1 receptors, all expressed in Sf9 cells, were purchased from Research Biochemicals International (Natick, Mass.). The frozen membranes containing the receptors were directly suspended at approximately 100 μg protein/ml and the cell suspension was homogenized for 5 s (Polytron, setting 5) without any further washing.

HERG channel receptor = biological target: T3, HERG channel receptor (Rattus norvegicus, UniProt O08962); assay: Competitive binding at HERG channel ([3H]dofetilide)
T3 sequence (O08962 1-1163): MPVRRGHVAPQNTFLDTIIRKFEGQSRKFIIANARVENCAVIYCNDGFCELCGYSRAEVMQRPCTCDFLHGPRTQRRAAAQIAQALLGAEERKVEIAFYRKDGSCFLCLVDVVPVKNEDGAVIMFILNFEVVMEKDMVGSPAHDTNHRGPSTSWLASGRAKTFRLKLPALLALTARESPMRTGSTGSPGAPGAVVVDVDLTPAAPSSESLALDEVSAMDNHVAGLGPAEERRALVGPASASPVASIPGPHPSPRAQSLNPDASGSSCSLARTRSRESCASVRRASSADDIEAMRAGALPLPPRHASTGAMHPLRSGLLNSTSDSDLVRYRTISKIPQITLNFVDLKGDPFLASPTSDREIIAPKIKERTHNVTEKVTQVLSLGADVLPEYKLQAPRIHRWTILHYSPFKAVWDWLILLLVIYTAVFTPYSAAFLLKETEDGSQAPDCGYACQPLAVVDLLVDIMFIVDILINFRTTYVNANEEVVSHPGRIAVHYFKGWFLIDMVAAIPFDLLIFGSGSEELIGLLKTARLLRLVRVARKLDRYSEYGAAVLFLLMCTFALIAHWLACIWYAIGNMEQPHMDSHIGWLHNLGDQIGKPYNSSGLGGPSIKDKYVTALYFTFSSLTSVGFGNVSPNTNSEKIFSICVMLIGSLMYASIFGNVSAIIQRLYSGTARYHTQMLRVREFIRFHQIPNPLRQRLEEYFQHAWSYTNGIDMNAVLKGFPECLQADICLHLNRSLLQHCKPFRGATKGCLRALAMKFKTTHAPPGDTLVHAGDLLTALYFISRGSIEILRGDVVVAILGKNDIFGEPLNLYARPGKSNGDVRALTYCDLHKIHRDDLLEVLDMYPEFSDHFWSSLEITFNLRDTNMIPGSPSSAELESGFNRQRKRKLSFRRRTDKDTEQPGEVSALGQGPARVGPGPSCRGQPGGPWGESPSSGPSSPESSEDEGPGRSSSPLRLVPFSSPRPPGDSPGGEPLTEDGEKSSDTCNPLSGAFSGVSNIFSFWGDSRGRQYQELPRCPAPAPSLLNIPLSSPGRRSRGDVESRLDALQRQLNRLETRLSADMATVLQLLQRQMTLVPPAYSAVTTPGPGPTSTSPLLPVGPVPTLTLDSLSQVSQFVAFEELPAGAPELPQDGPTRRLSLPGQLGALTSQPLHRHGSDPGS
Method: as §2

[3] = biological target: T4, alpha-2-adrenoceptor (cloned in Sf9 cells) (Homo sapiens, UniProt P08913); assay: Competitive binding at alpha-2-adrenoceptor ([3H]yohimbine); conditions: read-out: dissociation constant at alpha-2-adrenoceptor
T4 construct: purchased Research Biochemicals International (Natick, Mass.); host or cells: Sf9 cells
T4 sequence (P08913 1-465): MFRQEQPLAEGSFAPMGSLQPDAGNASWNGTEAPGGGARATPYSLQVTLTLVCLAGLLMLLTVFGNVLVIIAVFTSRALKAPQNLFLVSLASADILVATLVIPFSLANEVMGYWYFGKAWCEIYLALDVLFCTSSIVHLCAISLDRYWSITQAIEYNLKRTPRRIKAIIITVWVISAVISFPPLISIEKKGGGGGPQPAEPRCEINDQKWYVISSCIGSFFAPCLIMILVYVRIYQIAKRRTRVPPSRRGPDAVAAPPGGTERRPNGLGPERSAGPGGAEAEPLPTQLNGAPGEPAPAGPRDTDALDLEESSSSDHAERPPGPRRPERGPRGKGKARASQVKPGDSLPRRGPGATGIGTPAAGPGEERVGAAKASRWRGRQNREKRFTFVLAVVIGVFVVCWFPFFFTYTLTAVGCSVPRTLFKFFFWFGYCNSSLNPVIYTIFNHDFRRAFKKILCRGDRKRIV
Method: as §1

dopamine D2 receptors = biological target: T5, dopamine D2 receptors (Rattus norvegicus, UniProt P61169); assay: In vivo D2 occupancy ([3H]raclopride, striatum); conditions: for receptor occupancy at 20 mg/kg: po, oral 20 mg/kg, rats
T5 construct: from tissue; host or cells: striatum of living Sprague-Dawley rats
T5 sequence (P61169 whole entry): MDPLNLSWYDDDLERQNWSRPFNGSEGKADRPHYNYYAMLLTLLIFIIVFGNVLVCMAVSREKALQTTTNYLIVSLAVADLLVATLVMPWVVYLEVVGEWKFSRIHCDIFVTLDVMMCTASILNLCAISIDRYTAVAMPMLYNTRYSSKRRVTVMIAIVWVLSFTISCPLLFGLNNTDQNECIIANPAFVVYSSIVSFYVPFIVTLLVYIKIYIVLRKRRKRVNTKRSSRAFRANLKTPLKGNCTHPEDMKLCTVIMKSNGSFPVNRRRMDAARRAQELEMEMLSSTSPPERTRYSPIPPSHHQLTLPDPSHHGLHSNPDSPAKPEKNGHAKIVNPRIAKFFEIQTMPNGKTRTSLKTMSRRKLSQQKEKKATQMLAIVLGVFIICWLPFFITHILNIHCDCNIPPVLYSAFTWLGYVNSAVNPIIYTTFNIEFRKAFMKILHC
Method: Sprague-Dawley rats (each 250 g) received an oral dose of test compound of 20 mg/kg by gavage, using 2 ml per gavage feeding. The test compound solution was prepared as follows: 20 mg of test compound was added to 8 ml saline (0.9% NaCl), followed by the addition of a few drops of 2% lactic acid and back titration of the suspension to pH 5 using 0.1 N NaOH. A fine particulate suspension was used for gavage. Each rat received 2 ml of the suspension over a period of 5 minutes. […] The D2 occupancy in the striatum was calculated.

[4] = biological target: T6, cloned dopamine D2 receptor (Homo sapiens, UniProt P14416); assay: Dissociation from the cloned dopamine D2 receptor; type: binding
T6 construct: purchased Research Biochemicals International (Natick, Mass.); host or cells: Sf9 cells or CHO cells
T6 sequence (P14416 whole entry): as the sequence (P14416 whole entry) above

[5] = biological target: T7, serotonin-1A receptor (rat frontal cortex tissue) (Rattus norvegicus, UniProt P19327); assay: Competitive binding at serotonin-1A receptor ([3H]8-OH-DPAT), rat tissue; conditions: read-out: dissociation constant at serotonin-1A receptor
T7 construct: tissue Pel-Freez (Rogers, Ark.); host or cells: rat frontal cerebral cortex
T7 sequence (P19327 1-422): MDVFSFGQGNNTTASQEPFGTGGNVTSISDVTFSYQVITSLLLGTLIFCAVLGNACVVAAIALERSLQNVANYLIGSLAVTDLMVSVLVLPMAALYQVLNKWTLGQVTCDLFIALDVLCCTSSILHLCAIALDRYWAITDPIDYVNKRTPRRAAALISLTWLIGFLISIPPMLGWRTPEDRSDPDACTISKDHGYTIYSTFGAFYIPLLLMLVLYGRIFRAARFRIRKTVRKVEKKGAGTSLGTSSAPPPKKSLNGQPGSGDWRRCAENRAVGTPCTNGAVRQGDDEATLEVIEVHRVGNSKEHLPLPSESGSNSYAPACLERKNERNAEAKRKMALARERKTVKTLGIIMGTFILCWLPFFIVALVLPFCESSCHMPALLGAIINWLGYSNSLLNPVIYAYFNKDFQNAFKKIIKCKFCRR
Method: (§3) Rat brains were purchased from Pel-Freez (Rogers, Ark.) and stored at −70° C. […] Before each experiment, the striatum or the frontal cerebral cortex (free of myelin) was dissected from the partly thawed rat brain on a glass plate on a bed of dry ice. The dissected tissue was suspended in buffer (50 mM Tris-HCl, pH 7.4 at 20° C., 1 mM EDTA, 5 mM KCl, 120 mM NaCl, 1.5 mM CaCl2, 4 mM MgCl2) at 4 mg original wet weight per ml suspension.
as §2
(§4) Competition at the muscarinic receptors was done using either the cloned M1 receptors or the rat frontal cortex, 0.6 nM [^3H]QNB, and using 200 nM atropine to define nonspecific binding. […]

[6] = biological target: muscarinic cholinergic receptor (rat cortex tissue); assay: Competitive binding at muscarinic receptor ([3H]QNB); conditions: read-out: dissociation constant at muscarinic cholinergic receptor
Method: as §3, §2, §4

catalepsy = assay: Catalepsy (horizontal bar); type: in vivo; conditions: up to 60 mg/kg in mice
Excerpt: The front paws of the animal were placed on a horizontal bar. Control animals quickly moved off the bar. Cataleptic animals held on to the bar for up to 15 seconds or more.

[7] = biological target: sigma receptor (rat striatal tissue) (Rattus norvegicus, UniProt Q9R0C9); assay: biochemical
Chain of sigma receptor (rat striatal tissue) (Q9R0C9 whole entry): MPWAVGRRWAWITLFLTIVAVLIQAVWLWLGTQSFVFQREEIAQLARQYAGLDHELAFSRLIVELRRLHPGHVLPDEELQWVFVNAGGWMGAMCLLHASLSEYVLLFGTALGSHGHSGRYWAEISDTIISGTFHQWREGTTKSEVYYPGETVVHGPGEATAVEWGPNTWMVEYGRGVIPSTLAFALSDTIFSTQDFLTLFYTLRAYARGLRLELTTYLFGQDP
Method: as §3, §2, §4

[8] = biological target: T8, dopamine D1 receptor (rat striatal tissue) (Rattus norvegicus, UniProt P18901); assay: Competitive binding at dopamine D1 receptor ([3H]SCH23390), rat tissue; conditions: read-out: dissociation constant at dopamine D1 receptor
T8 construct: tissue Pel-Freez (Rogers, Ark.); host or cells: rat brain striatum
T8 sequence (P18901 whole entry): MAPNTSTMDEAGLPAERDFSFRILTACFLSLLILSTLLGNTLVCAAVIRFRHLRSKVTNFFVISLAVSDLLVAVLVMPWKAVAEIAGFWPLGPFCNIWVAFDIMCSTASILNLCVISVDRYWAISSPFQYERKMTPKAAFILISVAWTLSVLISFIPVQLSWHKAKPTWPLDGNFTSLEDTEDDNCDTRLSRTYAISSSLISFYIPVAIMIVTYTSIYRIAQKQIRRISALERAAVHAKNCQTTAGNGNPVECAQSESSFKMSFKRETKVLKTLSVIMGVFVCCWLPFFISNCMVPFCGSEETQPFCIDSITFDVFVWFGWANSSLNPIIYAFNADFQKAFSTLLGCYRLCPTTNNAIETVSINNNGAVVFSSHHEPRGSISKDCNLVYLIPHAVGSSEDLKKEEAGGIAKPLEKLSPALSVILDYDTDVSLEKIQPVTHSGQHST
Method: as §3, §2, §4

[9] = biological target: alpha-1-adrenoceptor (rat cortex); assay: Competitive binding at alpha-1-adrenoceptor ([3H]prazosin); conditions: read-out: dissociation constant at alpha-1-adrenoceptor
Method: as §3, §2, §4

[10] = biological target: rat brain or human brain dopamine D2 receptor; conditions: read-out: affinity (dissociation constant) of dopamine at the high-affinity state of D2; cited from earlier work

With `COc1cccc(C(=O)CCCN2CCC(O)(c3ccc(Cl)cc3)CC2)c1` [Example 2(a), 4-[4-(4-chlorophenyl)-4-hydroxypiperidin-1-yl]-1-(3-methoxyphenyl)butan-1-one] as the compound, how does the Ki [1] read?
The Ki was 1140 nM.

What about the Ki [2] of the same compound?
The Ki was 140 ± 8 nM.

And the Ki (HERG channel receptor)?
Its Ki is 2600 nM.

And the Ki [3]?
The Ki was 9500 nM.

What about the receptor occupancy at 20 mg/kg (dopamine D2 receptors; 30 min) of the same compound?
The receptor occupancy at 20 mg/kg was 39%.

And the receptor occupancy at 20 mg/kg (dopamine D2 receptors; 1 hour)?
Its receptor occupancy at 20 mg/kg is 63%.

And the receptor occupancy at 20 mg/kg (dopamine D2 receptors; 2 hour)?
The receptor occupancy at 20 mg/kg was 24%.

And the receptor occupancy at 20 mg/kg (dopamine D2 receptors; 3 hour)?
Its receptor occupancy at 20 mg/kg is 28%.

What about the receptor occupancy at 10 mg/kg (dopamine D2 receptors; sc, 10 mg/kg subcutaneous, after one hour, Sprague Dawley rats) of the same compound?
Its receptor occupancy at 10 mg/kg is 61%.

What about the melting point of the same compound?
The melting point was 127 to 129 °C.

And the “time at which dissociation from cloned D2 receptor was 50% completed” value [4]?
Its value is 23 s.

What about the Ki [5] of the same compound?
Its Ki is 12000 nM.

What about the Ki [6] of the same compound?
Its Ki is 570 nM.

And the catalepsy (catalepsy)?
The catalepsy was “did not result in any catalepsy”.

And the Ki [7]?
The Ki was 200 nM.

What about the Ki [8] of the same compound?
Its Ki is 11000 nM.

And the Ki [9]?
Its Ki is 1070 nM.

With `COc1cccc(C(=O)CCCN2CCC(O)(c3ccccc3)CC2)c1` [Example 2(b), 4-[4-phenyl-4-hydroxypiperidin-1-yl]-1-(3-methoxyphenyl)butan-1-one, reference compound] as the compound, how does the Ki [2] read?
The Ki was 660 nM.

For `NCCc1ccc(O)c(O)c1` [dopamine], which Kd [10] is on record?
Its Kd is ~1.75 nM and 1.75 nM.
